Where “and” joins values, the source holds several entries; their conditions need not be identical. Equal entries are not always repeated.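 48-hour exposure; five concentrations; linearly interpolated endpoints. At the GI50, growth is halved.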 Calls of active or inactive are those of the source. Cut-off read from the data, not from the text of the source: active = GI50 up to about 1.1 µM and inactive = higher.

Assay in all cases: inhibition of tumour cell growth, NCI panel, 48 h
Experiment [1] concerns SK-OV-3.
Experiment [2] relates to COLO 205.
Experiment [3] deals with HOP-62.
Experiment [4] relates to NCI-H460.
Experiment [5] deals with U-251.
Experiment [6] relates to MOLT-4.
Experiment [7] concerns HCT-15.
Experiment [8] deals with MDA-N.
Experiment [9] concerns RPMI-8226.
Experiment [10] concerns NCI-H522.
In experiment [11] the test system is CAKI-1.
In experiment [12] the test system is HOP-92.
Experiment [13] concerns DU-145.
Experiment [14] relates to SR.
The test system of experiment [15] is SNB-19.
The subject of experiment [16] is UACC-62.
In experiment [17] the test system is SK-MEL-5.
The test system of experiment [18] is KM12.
The subject of experiment [19] is A549.
Experiment [20] relates to HCC 2998.

As for `CC1OC(OC2C(OC(=O)[C@]34CCC(C)(C)C[C@H]3C3=CC[C@@H]5[C@@]6(C)CC[C@H](OC7OC(C(=O)O)C(O)C(O)C7O)C(C)(C)[C@@H]6CC[C@@]5(C)[C@]3(C)C[C@H]4O)OCC(O)C2O)C(O)C(O)C1OC1OCC(O)C(O)C1O` (stereo partly drawn), the GI50 in [1] was 16.8 µM (inactive) and 18.9 µM (inactive); in [2], 3.64 µM (inactive) and 2.32 µM (inactive); in [3], 17.7 µM (inactive) and 14.4 µM (inactive); in experiment [4], 22 µM (inactive) and 17 µM (inactive); in experiment [5] it was 10.4 µM (inactive) and 15.3 µM (inactive); in [6], 16 µM (inactive) and 27 µM (inactive). Moreover, the GI50 was 17.1 µM and 17.3 µM in experiment [7]; 10.6 µM (inactive) and 13.8 µM (inactive) in [8]; 12.1 µM (inactive) and 16.8 µM (inactive) in [9]; 10.2 µM (inactive) and 6.21 µM (inactive) in experiment [10]; 12.7 µM (inactive) and 7.74 µM (inactive) in experiment [11]; 13.8 µM (inactive) and 11.2 µM (inactive) in experiment [12]. For the same compound, the GI50 was 15.3 µM (inactive) and 13.9 µM (inactive) in experiment [13]; 7.55 µM (inactive) and 6.01 µM (inactive) in experiment [14]; 12.6 µM (inactive) and 8.09 µM (inactive) in experiment [15]; 18.5 µM (inactive) and 16 µM (inactive) in experiment [16]; 16.8 µM (inactive) and 18.9 µM (inactive) in [17].
`C[n+]1c2ccccc2n2c3ccccc3c(NCCc3ccccn3)c(C#N)c21`: the GI50 in experiment [1] was 3.4 µM (inactive); in experiment [2] it was 1.68 µM (inactive); in experiment [3], 2.11 µM (inactive); in experiment [4] it was 1.04 µM (active); in [18], 2.47 µM (inactive); in experiment [5], 1.68 µM (inactive). For the same compound, the GI50 in [6] is 1 µM (active); in experiment [7], 2.33 µM; in experiment [8], 1.64 µM (inactive); in experiment [9], 1.64 µM (inactive); in experiment [19], 3.62 µM (inactive); in [10] it was 0.828 µM (active). The GI50 was 1.98 µM (inactive) in experiment [11]; 5.97 µM (inactive) in [12]; 2.72 µM (inactive) in experiment [13]; 3.33 µM (inactive) in experiment [15]; 2.53 µM (inactive) in experiment [16]; 2.9 µM (inactive) in [17].
`CCCSc1ccc2[nH]c(/N=C/c3ccccc3)cc2c1`: the GI50 in experiment [2] was 19.3 µM (inactive); in experiment [6], 13.7 µM (inactive); in experiment [7], 29 µM; in experiment [8], 7.67 µM (inactive); in experiment [9], 14.8 µM (inactive); in [10], 15.6 µM (inactive). Besides, the GI50 is 19.4 µM (inactive) in [11]; 25.5 µM (inactive) in experiment [12]; 30.5 µM (inactive) in experiment [13]; 3.51 µM (inactive) in [14]; 17.4 µM (inactive) in experiment [16]; 7.14 µM (inactive) in experiment [17].
Take `Cc1ccc(S(=O)(=O)NCc2cccc([N+](=O)[O-])c2)cc1`: the GI50 in experiment [1], in [2], in experiment [3], in experiment [4], in experiment [18] and in experiment [5] was > 100 µM (inactive) throughout. For the same compound, the GI50 in [6] is 0.136 µM (active); in [7], above 100 µM; in [8], > 100 µM (inactive); in experiment [9] it was > 100 µM (inactive); in experiment [19], > 100 µM (inactive); in [10], 64.6 µM (inactive). The GI50 is > 100 µM (inactive) in experiment [11]; > 100 µM (inactive) in [12]; > 100 µM (inactive) in experiment [13]; 5.3 µM (inactive) in experiment [14]; > 100 µM (inactive) in experiment [15]; > 100 µM (inactive) in experiment [16]. Also, the GI50 in [17] was > 100 µM (inactive).
For `Cn1c(=O)c2nc(CCCCc3nc4c(=O)n(C)c(=S)n(C)c4[nH]3)[nH]c2n(C)c1=S`, the GI50 in [1] was 45.2 µM (inactive); in experiment [2], > 100 µM (inactive); in [3], 38.9 µM (inactive); in [4] it was > 100 µM (inactive); in experiment [18], > 100 µM (inactive); in experiment [5], 57.4 µM (inactive). The GI50 in experiment [7] is above 100 µM; in [8], > 100 µM (inactive); in experiment [9] it was > 100 µM (inactive); in experiment [19], > 100 µM (inactive); in experiment [10], > 100 µM (inactive); in [11], > 100 µM (inactive). Further, the GI50 is 45.7 µM (inactive) in experiment [12]; > 100 µM (inactive) in experiment [13]; > 100 µM (inactive) in experiment [14]; 76.6 µM (inactive) in experiment [15]; > 100 µM (inactive) in experiment [16]; > 100 µM (inactive) in [17].
`N=C(N)C(/N=N\c1ccccc1)C(=N)N` (stereo not drawn): the GI50 was 64.6 µM (inactive) in experiment [1]; 29.8 µM (inactive) in experiment [2]; 61.7 µM (inactive) in experiment [3]; 32.1 µM (inactive) in experiment [4]; 29.4 µM (inactive) in experiment [18]; 24 µM (inactive) in experiment [5]. The GI50 was 30.5 µM (inactive) in experiment [6]; 49.8 µM in experiment [7]; 19.5 µM (inactive) in experiment [8]; 27.9 µM (inactive) in [9]; 49.9 µM (inactive) in experiment [19]; 36 µM (inactive) in experiment [10]. The GI50 was 38.4 µM (inactive) in [11]; 20.3 µM (inactive) in [12]; > 100 µM (inactive) in experiment [13]; 16.5 µM (inactive) in experiment [20]; 53.7 µM (inactive) in [15]; 34.5 µM (inactive) in [16]. The GI50 in [17] was 28 µM (inactive).
Regarding `COc1ccc2[nH]cc(CCNC(=O)[C@H](Cc3ccc(O)cc3)NC(=O)[C@@H](NCC(F)(F)F)C(C)C)c2c1`, the GI50 is > 100 µM (inactive) in experiment [1]; 41.9 µM (inactive) in [2]; > 100 µM (inactive) in experiment [3]; 48 µM (inactive) in [4]; > 100 µM (inactive) in experiment [18]; 74.1 µM (inactive) in [5]. In addition, the GI50 is 68.5 µM (inactive) in experiment [6]; above 100 µM in experiment [7]; 45.1 µM (inactive) in [8]; 34.4 µM (inactive) in experiment [9]; 45.7 µM (inactive) in experiment [19]; 26.5 µM (inactive) in experiment [10]. The GI50 in experiment [12] is 75.5 µM (inactive); in experiment [13], > 100 µM (inactive); in experiment [14] it was > 100 µM (inactive); in experiment [15] it was > 100 µM (inactive); in [16], > 100 µM (inactive).
For the compound `COc1ccc(S(=O)(=O)Nc2ccc(-c3csc(N4C(=O)/C(=C/C=C\c5ccccc5)N=C4c4ccccc4)n3)cc2)cc1Cl`, the GI50 is 65.3 µM (inactive) in experiment [1]; 39.4 µM (inactive) in experiment [2]; 31.3 µM (inactive) in experiment [3]; 32.1 µM (inactive) in [4]; 29 µM (inactive) in experiment [18]; 28.8 µM (inactive) in experiment [5]. The GI50 is 22.8 µM (inactive) in experiment [6]; 21.8 µM in experiment [7]; 31.3 µM (inactive) in [8]; 28.9 µM (inactive) in experiment [19]; 18.5 µM (inactive) in experiment [10]; 36.1 µM (inactive) in experiment [11]. The GI50 was 16.6 µM (inactive) in experiment [12]; 31.8 µM (inactive) in experiment [13]; 31.8 µM (inactive) in experiment [14]; 33.7 µM (inactive) in [15]; 19.4 µM (inactive) in [16]; 27.4 µM (inactive) in experiment [17].
For `COC(=O)C(Cc1ccccc1)NP(=O)(O)OCC1OC(n2cc(I)c(=O)[nH]c2=O)CC1O` (stereo not drawn), the GI50 in experiment [1], in experiment [2], in experiment [3], in experiment [4], in experiment [18] and in experiment [5] was > 100 µM (inactive) throughout. Also, the GI50 in experiment [6] is > 100 µM (inactive); in experiment [7] it was above 100 µM; in experiment [8] it was > 100 µM (inactive); in experiment [9], > 100 µM (inactive); in experiment [19], > 100 µM (inactive); in [10] it was > 100 µM (inactive). For the same compound, the GI50 in experiment [11], in experiment [12], in [13], in [14], in experiment [15] and in experiment [16] was > 100 µM (inactive) throughout. Besides, the GI50 in experiment [17] is > 100 µM (inactive).
As for `C=C(C)C1CC2=C(O1)C(=O)c1cccc(O)c1C2=O` (stereo not drawn), the GI50 is 1.51 µM (inactive) in experiment [1]; 1.75 µM (inactive) in [2]; 1.57 µM (inactive) in experiment [3]; 1.91 µM (inactive) in experiment [4]; 1.69 µM (inactive) in experiment [18]; 1.43 µM (inactive) in experiment [5]. For the same compound, the GI50 was 0.2 µM (active) in experiment [6]; 2.05 µM in [7]; 0.064 µM (active) in experiment [8]; 0.265 µM (active) in experiment [9]; 2.47 µM (inactive) in [19]; 0.378 µM (active) in experiment [10]. In addition, the GI50 is 0.764 µM (active) in experiment [11]; 0.604 µM (active) in [12]; 1.76 µM (inactive) in experiment [13]; 1.99 µM (inactive) in [20]; 1.95 µM (inactive) in [15]; 0.883 µM (active) in experiment [16]. In addition, in experiment [17], the GI50 was 0.144 µM (active).
Take `COc1cc(O)c2c(=O)cc(-c3ccc(O)cc3O)oc2c1CC=C(C)C` [ARTOCARPETIN A]: the GI50 in experiment [2] was 9.25 µM (inactive); in experiment [4], 14.3 µM (inactive); in [18], 6.12 µM (inactive); in experiment [5], 17.1 µM (inactive); in experiment [6], 8.93 µM (inactive); in experiment [7] it was 11.6 µM. The GI50 was 19.3 µM (inactive) in experiment [8]; 20.3 µM (inactive) in experiment [9]; 14.2 µM (inactive) in [19]; 16 µM (inactive) in [10]; 17.1 µM (inactive) in experiment [11]; 19.6 µM (inactive) in [12]. In addition, the GI50 in experiment [13] was 30.2 µM (inactive); in experiment [14], 4.5 µM (inactive); in experiment [15] it was 18.3 µM (inactive); in [16], 20 µM (inactive); in [17] it was 18.3 µM (inactive).
